In patent US20190201541A1, “ANTI-CD22 ANTIBODY-MAYTANSINE CONJUGATES, COMBINATIONS, AND METHODS OF USE THEREOF” (Triphase Accelerator U.S. Corporation, priority 2017, published 2019):
pIC50: −log10 of the molar value.

Columns and labels:
Assay type in all cases: cell-based
Ramos cells = assay: In vitro cytotoxicity, Cell Titer-Glo, 5 d; conditions: Homo sapiens, 120 h, 5 d incubation, read-out: IC50 against Ramos cells
Method: (§1) The CD22-positive B-cell lymphoma cell lines, Ramos and WSU-DLCL2, were obtained from the ATCC and DSMZ cell banks, respectively. The cells were maintained in RPMI-1640 medium (Cellgro, Manassas, Va.) supplemented with 10% fetal bovine serum (Invitrogen, Grand Island, N.Y.) and Glutamax (Invitrogen). 24 h prior to plating, cells were passaged to ensure log-phase growth. On the day of plating, 5000 cells/well were seeded onto 96-well plates in 90 μL normal growth medium supplemented with […] and 10 µg/mL streptomycin (Cellgro). Cells were treated at various concentrations with 10 μL of diluted analytes, and the plates were incubated at 37° C. in an atmosphere of 5% CO2. After 5 d, 100 μL/well of Cell Titer-Glo reagent (Promega, Madison, Wis.) was added, and luminescence was measured using a Molecular Devices SpectraMax M5 plate reader. GraphPad Prism software was used for data analysis.

WSU-DLCL2 cells = assay: In vitro cytotoxicity, Cell Titer-Glo, 5 d; conditions: Homo sapiens, WSUDLCL2, 120 h; 5 d incubation; read-out: IC50 against WSU-DLCL2 cells
Method: as §1

[1] = tested on: Ramos cells engineered to express MDR1 (MDR1+); assay: In vitro cytotoxicity assay on MDR1-expressing cells; conditions: versus wild-type cells
Method: (§2) MDR1 (ABCB1) cDNA was obtained from Sino Biological and cloned into a pEF plasmid with a hygromycin selection marker. An AMAXA Nucleofector™ instrument was used to electroporate Ramos (ATCC CRL-1923) and WSU-DLCL2 (DSMZ ACC 575) cells according to the manufacturer's instructions. After selection with hygromycin (Invitrogen 10687010), the pools were enriched with paclitaxel treatment (25 nM for up to 10 days) to further select cells with functional MDR1. The resulting cells were maintained under hygromycin selection in RPMI (Gibco 21870-092) supplemented with 10% fetal bovine serum (FBS) and 1× GlutaMax (Gibco 35050-079).
(§3) Cell lines were plated in 96-well plates (Costar 3610) at a density of 5×10^4 cells/well in 100 μL of growth media and allowed to rest for 5 h. Serial dilution of test samples was performed in RPMI at 6× the final concentration and 20 μL was added to the cells. After incubation at 37° C. with 5% CO2 for 5 days, viability was measured using a Promega CellTiter 96® AQueous One Solution Cell Proliferation Assay (G3581) according to the manufacturer's instructions. GI50 curves were calculated in GraphPad Prism using the ADC's drug-to-antibody ratio (DAR) value to normalize the dose to the payload concentration.

[2] = tested on: WSU-DLCL2 cells engineered to express MDR1 (MDR1+); assay: as above
Method: as §2, §3

For `COc1cc2cc(c1Cl)N(C)C(=O)C[C@H](OC(=O)[C@H](C)N(C)C(C)=O)[C@]1(C)O[C@H]1[C@H](C)[C@@H]1C[C@@](O)(NC(=O)O1)[C@H](OC)/C=C/C=C(\C)C2` [free maytansine, maytansine], the pIC50 (Ramos cells) was 10.40, the pIC50 (WSU-DLCL2 cells) was 10.07 and the “loss of efficacy in MDR1+ Ramos cells” value [1] was about 10 fold. The “potency in MDR1+ WSU-DLCL2 cells on cotreatment with cyclosporin (MDR1 inhibitor)” value ([2]; cyclosporin cotreatment) was “restored the original potency” and the “loss of efficacy in MDR1+ WSU-DLCL2 cells” value ([2]; versus wild-type cells) was about 10 fold.
